According to patent US20140088197A1, “MIXED CRYSTAL AGOMELATINE (FORM VIII), PREPARATION METHOD AND USE THEREOF AND PHARMACEUTICAL COMPOSITION CONTAINING SAME” (LES LABORATORIES SERVIER, priority 2011, published 2014):
Converted amounts (≈) assume the structure as drawn. Read-outs that look alike come from different tables or passages of the source.

Assays:
Format in all cases: physicochemical
[1] = Storage stability at 40° C. for 20 days, purity and content by HPLC; conditions: for Content: external standard method; for Purity: internal standard method
Description: Agomelatine crystalline forms VI and VIII (obtained through embodiment 2) are each placed in thermostatic containers at a temperature of 40° C. and stored for 20 days, with the stability of these samples being studied using the method of High Performance Liquid Chromatography.
1. Purity Measurement of the Sample
Chromatographic conditions: Octadecyl silane chemically bonded silica is used as packing; a mixed solution of 10 mmol/L phosphate buffer (adjusted to pH 7.0 with sodium hydroxide) and acetonitrile in the ratio 2:7 by volume acts as the mobile phase; column temperature 40° C.; and detection wavelength 220 nm. Purity is measured using an internal standard method.
In the mobile phase, crystalline forms VI and VIII are distributed into 1 mg/mL solutions, 10 μL of each of which are then passed into a liquid chromatograph, with their chromatograms being recorded.
The reference sample purity measurement method was used, with measurements being made using an […], the results can be seen in Table I.

[2] = Measurement of water solubility (HPLC, external standard); conditions: for solubility: water
Text: 3. Measurement of Water Solubility
The HPLC method was used to determine water solubility, with measurements being made using an external standard method.

[3] = Determination of crystalline stability (pharmacopoeia stability assessment method); set-up: key to Crystalline stability, long term testing (6 months) / Crystalline stability, long term testing (9 months) / Crystalline stability, long term testing (12 months) / Crystalline stability, influencing factor: high temperature / Crystalline stability, influencing factor: illumination / Crystalline stability, influencing factor: high humidity / Crystalline stability, accelerated testing: √—stable; x—unstable; conditions: for Crystalline stability, influencing factor: high temperature: 60° C.; for Crystalline stability, influencing factor: high temperature / Crystalline stability, influencing factor: high humidity / Crystalline stability, influencing factor: illumination: exposed for 10 days; for Crystalline stability, influencing factor: high humidity: 92.5% RH; for Crystalline stability, influencing factor: high humidity / Crystalline stability, long term testing (6 months) / Crystalline stability, long term testing (9 months) / Crystalline stability, long term testing (12 months): 25° C.; for Crystalline stability, accelerated testing: hermetically sealed for 6 months, 30° C., 65% RH; for Crystalline stability, long term testing (6 months) / Crystalline stability, long term testing (9 months) / Crystalline stability, long term testing (12 months): hermetically sealed, 60% RH
Text: 4. Determination of Crystalline Stability

[4] = after storage in thermostatically controlled containers at 40° C. for 20 days
[5] = compared with crystalline form VI

| Content [1, 4] [%] | Purity [1, 4] [%] | Content ([1]; before storage) [%] | Purity ([1]; before storage) [%] | solubility ([2]; read-out: Solubility) [µg/mL] | Crystalline stability, influencing factor: high temperature [3] | Crystalline stability, influencing factor: high humidity [3] | Crystalline stability, influencing factor: illumination [3] | Crystalline stability, accelerated testing [3] | Crystalline stability, long term testing (6 months) [3] | Crystalline stability, long term testing (9 months) [3] | Crystalline stability, long term testing (12 months) [3] | Solubility compared with crystalline form VI [2, 5] | solubility [2] [µg/mL] | Stability under high temperature compared with crystalline form VI [3, 5] | Compound | Crystal transition under extreme conditions ([3]; high temperature of 60° C. for 10 days) |
| --- | --- | --- | --- | --- | --- | --- | --- | --- | --- | --- | --- | --- | --- | --- | --- | --- |
| 99.8 | 99.6 | 100.1 | 99.7 | 336 (≈ 1380 µM) | x* | √ | √ | √ | √ | √ | x |  |  |  | COc1ccc2cccc(CCNC(C)=O)c2c1 [Crystalline form VI, N-[2-(7-methoxy-1-naphthyl)ethyl]acetamide, reference compound] | small amounts of crystal transition can occur |
| 100.1 | 99.7 | 100.3 | 99.8 |  | √* | √ | √ | √ | √ | √ | √ | comparable solubility | 335 (≈ 1380 µM) | greater stability under high temperature | COc1ccc2cccc(CCNC(C)=O)c2c1 [Form VIII, N-[2-(7-methoxy-1-naphthyl)ethyl]acetamide] |  |
